Data taken from patent US20050153899A1, “Therapeutical conversion” (priority 2003, published 2005).

Legend:
[1] = tested on: GH or IGF-1 excess; details: primary or secondary therapy; cited from earlier work
[2] = tested on: patients with acromegaly; assay: Safety monitoring in conversion study: adverse events, liver function tests, blood pressure, pulse, weight; assay type: in vivo, human
Description: (§1) This open-label study included patients 18 years of age or older with a previously established diagnosis of acromegaly. […] Treatment with a dopamine agonist was discontinued 4 weeks before the baseline visit. Treatment with pegvisomant 10 mg/day subcutaneous was started at week 4 and continued through week 32. […] A more rapid dose escalation was allowed in a few patients based on the effective dose in the previous study. Vital signs and adverse events were monitored at each study visit; clinical and laboratory assessments were conducted at screening and baseline visits and regularly at 4-week intervals during the study. Laboratory assessments included serum IGF-I and GH concentrations, liver chemistry tests (alanine aminotransferase [ALT], aspartate transaminase [AST], bilirubin, and alkaline phosphatase), and routine laboratory tests (hematology, serum chemistry, and urinalysis). For the primary outcome measure, exact binomial 2-sided 95% confidence intervals were constructed. All other analyses were descriptive in nature. For continuous measurements, descriptive summaries and subsequent analyses included the number of patients for which data were available, mean, median, standard deviation, and minimum/maximum values. […] The descriptive summaries for categorical or discrete measurements included the number and percentage of patients in each category. […] Secondary outcomes and safety were reported as descriptive summaries.

[3] = tested on: patients with acromegaly; assay: Signs and symptoms of acromegaly, overall health status, ring size; assay type: in vivo, human; details: after conversion from octreotide LAR
Description: Signs and symptoms of acromegaly and overall health status were assessed by use of questionnaire that patients completed. Disease signs and symptoms were scored using an […] (0=absent to 8=severe, incapacitating); overall health status was scored using a 10-point scale (0=worst possible to 10=best possible). Additionally, change in ring size of the fourth digit of the right hand (fifth digit if the fourth was too large) was measured using a jeweler's ring sizing system (plastic) over the course of the study.

[4] = tested on: pituitary tumor; design: species or system human; details: in vivo
Description: Magnetic resonance imaging of the pituitary was performed at baseline and at the end of the study. Pituitary tumor volumes were calculated from the images by a single evaluator. Ultrasound of the gallbladder was performed at baseline and week 32.

[5] = tested on: serum IGF-I; assay: Serum IGF-I concentration (RIA) in open-label octreotide LAR to pegvisomant conversion study; assay type: in vivo, human
Description: as §1, with “urinalysis). Assaying of serum IGF-I and GH concentrations was performed by an independent laboratory (Endocrine Sciences, Inc., Calabasas Hills, Calif.). Following separation of serum IGF-I from binding proteins by acid-ethanol extraction, serum IGF-I concentrations were determined using the IGF-I Nichols Kit (Cat. […] Serum GH concentrations were measured using a standard double antibody RIA with 125I-labeled recombinant human GH (hGH) tracer and primary rabbit anti-hGH antisera. Bound radioactive antibody-bound hGH was detected using a gamma counter. Specific radioactive hGH binding for each dilution was determined by subtracting the respective nonspecific binding, and the net radioactive hGH binding was calculated as a percentage of the total radioactive hGH added to each tube. Dilutions having a specific binding >2% were designated positive.” for “urinalysis).”

[6] = tested on: patients with acromegaly; assay: Glucose homeostasis in conversion study: HbA1c, fasting plasma glucose, insulin, OGTT; assay type: in vivo, human
Description: Glycolated hemoglobin (HbA1c), fasting plasma glucose, and insulin concentrations were used to monitor the effects of pegvisomant on glucose homeostasis. […] Patients also underwent oral glucose tolerance testing (OGTT) to determine the glucose area under the concentration-time curve (AUC) at week 4 before initiation of pegvisomant and at week 32. Plasma glucose levels were assessed at −15, 0, 30, 60, 90, 120, 150, and 180 minutes following an oral glucose load.
For the primary outcome measure, exact binomial 2-sided 95% confidence intervals were constructed. All other analyses were descriptive in nature. For continuous measurements, descriptive summaries and subsequent analyses included the number of patients for which data were available, mean, median, standard deviation, and minimum/maximum values. […] The descriptive summaries for categorical or discrete measurements included the number and percentage of patients in each category. Statistical significance defined as a P value of <0.05 was determined by: 1) McNemar's Chi-square test for liver function tests and the proportion of patients with IGF-I below upper limit of normal at during the study versus baseline, or 2) the signed rank test for all other comparisons. Secondary outcomes and safety were reported as descriptive summaries.

[7] = patients with normal IGF-I at baseline (n=13)

Compound: C[C@@H](O)[C@@H]1NC(=O)[C@H](CCCCN)NC(=O)[C@@H](Cc2c[nH]c3ccccc23)NC(=O)[C@H](Cc2ccccc2)NC(=O)[C@@H](NC(=O)[C@H](N)Cc2ccccc2)CSSC[C@@H](C(=O)N[C@H](CO)[C@@H](C)O)NC1=O [Octreotide]
- patients in whom GH or IGF-1 excess is controlled [1]: 50-60%

Compound: pegvisomant
- clinically relevant changes in serum ALT, ASP or bilirubin in patients with normal liver function at baseline ([2]; in vivo): No patient
- elevations in blood pressure or pulse ([2]; in vivo): No significant or clinically relevant elevations
- mean diastolic blood pressure ([2]; in vivo): 76 mm Hg
- mean systolic blood pressure ([2]; in vivo): 126 mm Hg
- patients reporting at least 1 adverse event ([2]; in vivo): 26.4%
- patients with abnormal liver function tests (≧3 times ULN) ([2]; in vivo): No patients had abnormal liver function tests
- patients with treatment-related constipation ([2]; in vivo): 3.8%
- patients with treatment-related injection-site reaction ([2]; in vivo): 3.8%
- serious treatment-related adverse events ([2]; in vivo): No serious treatment-related adverse events
- patients with anomalous spikes in ALT levels ([2]; week 20 to week 24): 5.7%
- mean overall signs-and-symptoms scores, overall health status, measures of ring size [3]: improved
- pituitary volume, mean change [4]: 0.06 cm3
- pituitary volume, median change [4]: 0 cm3
- pituitary volume, range of change [4]: −0.73 to 1.1 cm3
- cumulative percentage of patients achieving at least one IGF-I concentration within normal age-related range ([5]; any time during the study): 85%
- change in IGF-I concentrations ([5]; patients with baseline IGF-I above age-adjusted reference range): significantly reduced
- change in IGF-I concentrations ([5]; patients with normal IGF-I levels at baseline): not significantly changed
- serum IGF-I concentration ([5]; week 32, all patients): 292 ng/mL
- patients with normalized IGF-I concentrations ([5]; week 32, 38 of 49 patients): 77.6%
- change in median HbA1c ([6]; all patients, 32-week study): significant decrease
- decrease in fasting plasma glucose [6, 7]: 1.7 mmol/L
- decrease in median HbA1c [6, 7]: 0.2%
- peak insulin concentration ([6]; week 12): 90 pmol/L
- glucose AUC during 2-hour OGTT ([6]; week 32): 1280 mmol·min/L
- insulin/glucose ratio ([6]; week 32): 13.6
- median fasting glucose ([6]; week 32): 4.7 mmol/L
- median insulin concentration ([6]; week 32): 69 pmol/L
